ChEMBL document CHEMBL5661943, “ASAP - In vitro antiviral effect” (2024)
pEC50: −log10 of the molar value.

Legend:
dengue virus type 2 = assay: Functional assay to measure dose dependent changes in antiviral-drug inhibitory efficacy against Dengue virus type 2 New Guinea C in Vero E6 miRFP670 cells (cotreated with P-gp inhibitor, CP100356). Cells are treated with antiviral candidates that are serially diluted, following infection, cells are fixed. EC50 is reported via analysis of fluorescence intensity using high-content imager. The …; type: organism-based, Chlorocebus sabaeus, Vero C1008; conditions: Dengue virus
Zika virus = assay: Functional CPE-based assay to measure dose dependent changes in antiviral-drug inhibitory efficacy against Zika virus MR766 in Vero E6 miRFP670 cells. Cells are treated with antiviral candidates that are serially diluted. EC50 is reported via analysis of MTS assay as a readout of CPE. The assay has been performed by KU Leuven.; type: organism-based, Chlorocebus sabaeus, Vero C1008; conditions: Zika virus

Q: What does the source list for CC(=O)NCc1cccc(NC(=O)c2cc(Cl)cc(NC(=O)OCc3ccccc3)c2)c1?
A: pEC50 (dengue virus type 2; Vero C1008): 4.98; EC90 (dengue virus type 2; Vero C1008, Baseline response 0 %, EC90 CI (lower) 4.143 uM, EC90 CI (upper) 6.94 uM, Hill slope -3.293, Maximum measured 105.977 %, Maximum response 100 %, Minimum measured 1.058 %, P-gp concentration 500 nM, R squared 0.979, P-gp inhibitor CP100356): 20.4 µM; pEC50 (Zika virus; Vero C1008): < 4.30; EC90 (Zika virus; Vero C1008, Baseline response 0 %, Hill slope 0.809, Maximum measured 24.23 %, Maximum response 100 %, Minimum measured -4.371 %, R squared 0.519): > 50 µM

Q: With O=C(Nc1ccc(C2CNC2)cc1)c1cc(Cl)cc2[nH]ncc12 as the compound, how does the pEC50 (dengue virus type 2; Vero C1008) read?
A: 5.06

Q: What about the EC90 (dengue virus type 2; Vero C1008, Baseline response 0 %, EC90 CI (lower) 1.814 uM, EC90 CI (upper) 3.53 uM, Hill slope -1.767, Maximum measured 103.682 %, Maximum response 100 %, Minimum measured 12.273 %, P-gp concentration 500 nM, R squared 0.972, P-gp inhibitor CP100356) of the same compound?
A: 30.4 µM

Q: What about the pEC50 (Zika virus; Vero C1008) of the same compound?
A: < 4.30

Q: And the EC90 (Zika virus; Vero C1008, Maximum measured 1.247 %, Minimum measured -2.682 %)?
A: > 50 µM

Q: What does the source list for NCc1cccc(NC(=O)[C@@H](NC(=O)OCc2ccccc2)c2ccc(-c3cc4cccnc4s3)cc2)c1?
A: pEC50 (dengue virus type 2; Vero C1008): < 4.30; EC90 (dengue virus type 2; Vero C1008, Baseline response 0 %, Hill slope -1.813, Maximum measured 108.419 %, Maximum response 100 %, Minimum measured 62.17 %, P-gp concentration 500 nM, R squared 0.703, P-gp inhibitor CP100356): > 50 µM; pEC50 (Zika virus; Vero C1008): < 4.30; EC90 (Zika virus; Vero C1008, Baseline response 0 %, Hill slope 2.61, Maximum measured 41.685 %, Maximum response 100 %, Minimum measured -5.482 %, R squared 0.949): > 50 µM

Q: CC(C)Oc1ccc(S(=O)(=O)Nc2ccc(Cl)cc2C(=O)O)cc1 was tested. Which pEC50 (dengue virus type 2; Vero C1008) did it give?
A: 4.96

Q: What about the EC90 (dengue virus type 2; Vero C1008, Baseline response 0 %, Hill slope -49.91, Maximum measured 106.831 %, Maximum response 100 %, Minimum measured 0.108 %, P-gp concentration 500 nM, R squared 0.989, P-gp inhibitor CP100356) of the same compound?
A: 11.6 µM

Q: What about the pEC50 (Zika virus; Vero C1008) of the same compound?
A: < 4.30

Q: And the EC90 (Zika virus; Vero C1008, Baseline response 0 %, Hill slope 0.349, Maximum measured 6.596 %, Maximum response 100 %, Minimum measured -0.897 %, R squared 0.277)?
A: > 50 µM

Q: How did the pEC50 (dengue virus type 2; Vero C1008) turn out when NCc1cccc(NC(=O)c2cc(Cl)cc(C(N)=O)c2)c1 was run?
A: < 4.30

Q: What about the EC90 (dengue virus type 2; Vero C1008, Maximum measured 162.876 %, Minimum measured 96.337 %, P-gp concentration 500 nM, P-gp inhibitor CP100356) of the same compound?
A: > 50 µM

Q: And the pEC50 (Zika virus; Vero C1008)?
A: > 6.41

Q: What about the EC90 (Zika virus; Vero C1008, Baseline response 0 %, Hill slope -0.109, Maximum measured 5.527 %, Maximum response 100 %, Minimum measured 1.124 %, R squared 0.046) of the same compound?
A: < 0.391 µM

Q: NCc1cc(NC(=O)c2cc(Cl)cc(NC(=O)OCc3ccccc3)c2)cc([C@@H]2C[C@H]2C(=O)O)c1 was tested. Which pEC50 (dengue virus type 2; Vero C1008) did it give?
A: < 4.90

Q: And the EC90 (dengue virus type 2; Vero C1008, Maximum measured 109.098 %, Minimum measured 97.886 %, P-gp concentration 500 nM, P-gp inhibitor CP100356)?
A: > 12.5 µM

Q: And the pEC50 (Zika virus; Vero C1008)?
A: < 4.30

Q: What about the EC90 (Zika virus; Vero C1008, Maximum measured -4.084 %, Minimum measured -7.869 %) of the same compound?
A: > 50 µM

Q: How did the pEC50 (dengue virus type 2; Vero C1008) turn out when O=C(Nc1cc(Cl)cc([C@H]2C[C@@H]2c2cccc(C3CCNCC3)c2)c1)OCc1ccccc1 was run?
A: 5.71

Q: What about the EC90 (dengue virus type 2; Vero C1008, Baseline response 0 %, Hill slope -2.737, Maximum measured 87.189 %, Maximum response 100 %, Minimum measured 17.217 %, P-gp concentration 500 nM, R squared 0.653, P-gp inhibitor CP100356) of the same compound?
A: > 3.12 µM

Q: What about the pEC50 (Zika virus; Vero C1008) of the same compound?
A: < 4.30

Q: And the EC90 (Zika virus; Vero C1008, Maximum measured 2.266 %, Minimum measured -4.892 %)?
A: > 50 µM

Q: C=CC[C@H](Nc1cc(Cl)cc(NC(=O)OCc2ccccc2)c1)c1ccc(-c2nn[nH]n2)cc1 was tested. Which pEC50 (dengue virus type 2; Vero C1008) did it give?
A: > 6.41

Q: And the EC90 (dengue virus type 2; Vero C1008)?
A: 0.683 µM

Q: And the pEC50 (Zika virus; Vero C1008)?
A: 5.65

Q: What about the EC90 (Zika virus; Vero C1008, Baseline response 0 %, EC90 CI (lower) 3.03 uM, EC90 CI (upper) 8.689 uM, Hill slope 2.685, Maximum measured 114.091 %, Maximum response 100 %, Minimum measured 6.468 %, R squared 0.926) of the same compound?
A: 5.13 µM

Q: Which results are given for O=C(NC1CCCCC1)c1cc(Cl)ccc1NS(=O)(=O)c1ccc(Oc2ccccc2Cl)cc1?
A: pEC50 (dengue virus type 2; Vero C1008): 5.49; EC90 (dengue virus type 2; Vero C1008): 3.72 µM; pEC50 (Zika virus; Vero C1008): < 4.30; EC90 (Zika virus; Vero C1008, Baseline response 0 %, Hill slope 0.673, Maximum measured 7.428 %, Maximum response 100 %, Minimum measured -1.415 %, R squared 0.499): > 50 µM

Q: With CNC(=O)[C@H](Nc1cc(CN)cc(C(=O)O)c1)c1cc(Cl)cc(C2CC2)c1 as the compound, how does the pEC50 (dengue virus type 2; Vero C1008) read?
A: < 4.30

Q: And the EC90 (dengue virus type 2; Vero C1008, Maximum measured 120.74 %, Minimum measured 102.141 %, P-gp concentration 500 nM, P-gp inhibitor CP100356)?
A: > 50 µM

Q: And the pEC50 (Zika virus; Vero C1008)?
A: < 4.30

Q: And the EC90 (Zika virus; Vero C1008, Maximum measured 1.859 %, Minimum measured -2.673 %)?
A: > 50 µM

Q: With O=C(Nc1cc(Cl)cc(-c2ccc3[nH]nc(C(=O)O)c3c2)c1)OCc1ccccc1 as the compound, how does the pEC50 (dengue virus type 2; Vero C1008) read?
A: < 4.30

Q: And the EC90 (dengue virus type 2; Vero C1008, Maximum measured 168.4 %, Minimum measured 111.066 %, P-gp concentration 500 nM, P-gp inhibitor CP100356)?
A: > 50 µM

Q: What about the pEC50 (Zika virus; Vero C1008) of the same compound?
A: < 4.30

Q: And the EC90 (Zika virus; Vero C1008, Baseline response 0 %, Hill slope 0.266, Maximum measured 1.773 %, Maximum response 100 %, Minimum measured -0.573 %, R squared 0.018)?
A: > 50 µM

Q: How did the pEC50 (dengue virus type 2; Vero C1008) turn out when C=CC[C@H](Nc1ccc(-c2nn[nH]n2)cc1)c1cc(Cl)cc(NC(=O)OCc2ccccc2)c1 was run?
A: 5.74

Q: And the EC90 (dengue virus type 2; Vero C1008, Baseline response 0 %, EC90 CI (lower) 0.301 uM, EC90 CI (upper) 0.468 uM, Hill slope -1.382, Maximum measured 87.879 %, Maximum response 100 %, Minimum measured 3.84 %, P-gp concentration 500 nM, R squared 0.99, P-gp inhibitor CP100356)?
A: 9.02 µM

Q: What about the pEC50 (Zika virus; Vero C1008) of the same compound?
A: 4.86

Q: What about the EC90 (Zika virus; Vero C1008, Baseline response 0 %, EC90 CI (lower) 0 uM, EC90 CI (upper) -3.27181e+18 uM, Hill slope 17.95, Maximum measured 103.91 %, Maximum response 100 %, Minimum measured 1.446 %, R squared 0.986) of the same compound?
A: 15.5 µM
